Reference: publication PMC9737664, “Human Milk Oligosaccharide 2′-Fucosyllactose Inhibits Ligand Binding to C-Type Lectin DC-SIGN but Not to Langerin” (International Journal of Molecular Sciences, 2022)

Biological target: T1, DC-SIGN (Homo sapiens, UniProt Q9NNX6)
T1 construct: gene CD209; DC-SIGN-Fc: extracellular domain fused to the Fc portion of human IgG1
T1 sequence (Q9NNX6 59-404 limits assumed): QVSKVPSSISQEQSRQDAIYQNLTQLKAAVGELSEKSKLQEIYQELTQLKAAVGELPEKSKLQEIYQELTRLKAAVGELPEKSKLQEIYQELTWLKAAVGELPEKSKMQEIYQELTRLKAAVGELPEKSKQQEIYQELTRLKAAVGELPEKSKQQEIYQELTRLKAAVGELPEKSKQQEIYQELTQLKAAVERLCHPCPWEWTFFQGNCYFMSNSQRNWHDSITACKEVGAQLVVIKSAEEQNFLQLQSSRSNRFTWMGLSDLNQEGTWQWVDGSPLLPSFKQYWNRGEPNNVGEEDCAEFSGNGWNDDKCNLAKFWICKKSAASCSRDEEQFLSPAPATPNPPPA
Assay: Solid-phase competition ELISA of DC-SIGN-Fc against PAA-fucose and PAA-Le^b; also Le^b bead competition on DC-SIGN expressing cells ([…])
Assay type: binding

C[C@@H]1O[C@@H](O[C@H]2[C@H](O[C@H]3[C@H](O)[C@@H](O)C(O)O[C@@H]3CO)O[C@H](CO)[C@H](O)[C@@H]2O)[C@@H](O)[C@H](O)[C@@H]1O (stereo partly shown) [2′-FL, 2′-Fucosyllactose]
Solid-phase competition ELISA of DC-SIGN-Fc against PAA-fucose and PAA-Le^b; als: ~ 2 mM
